Common to all, as to assay: Cytotoxicity, WST-1 and nuclear morphology (Example 73)
Format in all cases: cell-based
(In general: Tetrazolium assays rely on reduction of a dye to a coloured formazan, in cell work by metabolically active cells.)

For test [1], the system named is rat cardiomyoblast (H9c2) cells. The settings on record: Rattus norvegicus, read-out: EC50 (μM) H9c2 19% O2. The method, then: (§1) All cell culturing media and serum were from Sigma-Aldrich (St. Louis, Mo., USA). Product Nos. are given in parentheses. The human acute myeloid leukemia cell line MOLM-13 was cultured in RPMI medium (R5886) enriched with […] (F7524) and 0.2 mM L-glutamine (G7513). The normal rat kidney epithelial (NRK) and the rat cardiomyoblast (H9c2) cells were cultured in DMEM medium (D6429) enriched with 10% fetal bovine serum (F7524). All cell lines were additionally supplemented with 100 IU/mL penicillin and […] (P0781). The cells were cultured in a humidified atmosphere either under 2% or 20% O2 at 37° C.
(§2) All analogues were dissolved in DMSO (D5879, Sigma-Aldrich) at concentrations between 2.5 and 20 mM before testing. For cytotoxic testing, the MOLM-13 cells were seeded as 20,000 cells/well, while NRK and H9c2 cells were seeded as 5,000 cells/well in 96-well Microplates (#167008, Thermo Scientific™ Nunc™ MicroWell™) with 100 μL medium/well. The cells were exposed to various concentrations of iodinin or its analogues for 24 hrs before the cell proliferation reagent WST-1 was used to assess the viability, in accordance with the manufacturer's instructions (11644807001, Roche Diagnostics, Sigma-Aldrich). The cells were next fixed in 2% buffered formaldehyde (pH 7.4) with the DNA-specific dye Hoechst 33342 (Polysciences Inc.) and assessed for cell death by UV-microscopy based on nuclear morphology. The highest concentration of analogue corresponded to 1% of DMSO, which alone gave less than 7% cell death as judged by nuclear morphology.
(§3) EC50 values were determined by analyses of WST-1 signal results as well as microscopic evaluation of cell death by four-parameter regression analyses using the SigmaPlot software (Systat Software inc. San Jose, Calif.):
(§4) [formula] where Y is the response (WST-1 signal or percent apoptosis), min and max are minimum and maximum response, X is concentration of analogue, EC50 equals the point of inflection, i.e. the point that gives half of maximum response, and h is the Hill's slope of the curve. The two methods gave consistent response curves for each analogue. In the case of Tirapazamine, where its colour interfered with the WST-1 signal, only microscopic evaluation of Hoechst stained cells was used in order to calculate its EC50 values.

Test [2] deals with human acute myeloid leukemia cell line MOLM-13. The method, then: as §1, §2, §3, §4
Test [3] has as its system normal rat kidney epithelial (NRK) cells. As for the experimental part:
as §1, §2, §3, §4

Setting [4] is: H9c2, 19% O2, 24 hours of incubation.
Where [5] appears, read: Homo sapiens, MOLM-13, 2% O2, 24 hours of incubation, read-out: EC50 (μM) MOLM-13 2% O2.
[6] abbreviates: Homo sapiens, MOLM-13, 19% O2, 24 hours of incubation, read-out: EC50 (μM) MOLM-13 19% O2.
The mark [7] stands for this setting: Rattus norvegicus, 2% O2, 24 hours of incubation, read-out: EC50 (μM) NRK 2% O2.
The mark [8] stands for this setting: Rattus norvegicus, 19% O2, 24 hours of incubation, read-out: EC50 (μM) NRK 19% O2.
Setting [9] is: Homo sapiens, MOLM-13, 24 h, read-out: EC50 (μM) MOLM-13 2% O2.
[10] abbreviates: Homo sapiens, MOLM-13, 24 h, read-out: EC50 (μM) MOLM-13 19% O2.
Setting [11] is: MOLM-13, 2% O2, 24 hours of incubation, read-out: EC50 (μM) MOLM-13 2% O2.
Where [12] appears, read: MOLM-13, 19% O2, 24 hours of incubation, read-out: EC50 (μM) MOLM-13 19% O2.

Structures are written as SMILES. Read-outs that look alike come from different tables or passages of the source.

The EC50 is the concentration needed to bring the measured effect to its halfway point.

For `CCOC(=O)COc1cccc2c1[n+]([O-])c1cc(C)c(C)cc1[n+]2[O-]` [Example 6b, 1-(2-ethoxy-2-oxoethoxy)-7,8-dimethylphenazine 5,10-dioxide], the 50% effective concentration (EC50) was greater than 100 µM in test [1] (setting [4]); 6.3 ± 0.25 µM in test [2] (setting [5]); 8.3 ± 0.78 µM in test [2] (setting [6]); greater than 100 µM in test [3] (setting [7]); 140 ± 2 µM in test [3] (setting [8]).
As for `CN1CCN(C(=O)Oc2cccc3c2[n+]([O-])c2cc(Br)c(Br)cc2[n+]3[O-])CC1` [Example 8g, 7,8-dibromo-1-((4-methylpiperazine-1-carbonyl)oxy)phenazine 5,10-dioxide], the EC50 amounted to 64 ± 9.2 µM in test [1] (H9c2, 24 h); 0.7 ± 0.04 µM in test [2] (setting [9]); 0.89 ± 0.03 µM in test [2] (setting [10]); 62 ± 1.3 µM in test [3] (read-out: EC50 (μM) NRK 2% O2, 2% O2, 24 hours of incubation); 49 ± 1.8 µM in test [3] (read-out: EC50 (μM) NRK 19% O2, 19% O2, 24 hours of incubation).
Consider `Cc1c(C)[n+](O)c2c(O)cccc2[n+]1[O-]` [Example 12, 5-hydroxy-2,3-dimethylquinoxaline 1,4-dioxide], for which the EC50 in test [2] (setting [5]) and in test [2] (setting [6]) was greater than 200 µM throughout.
As for `Cc1c(C)[n+]([O-])c2c(OC(=O)N3CCN(C)CC3)cccc2[n+]1[O-]` [Example 13, 2,3-dimethyl-5-((4-methylpiperazine-1-carbonyl)oxy)quinoxaline 1,4-dioxide], the 50% effective concentration (EC50) in test [2] (setting [11]) and in test [2] (setting [12]) was greater than 200 µM throughout.
Turning to `CC(C)(C)OC(=O)COc1cccc2c1[n+]([O-])c1cccc(OCC(=O)OC(C)(C)C)c1[n+]2[O-]` [Example 36, 1,6-bis(2-(tert-butoxy)-2-oxoethoxy)phenazine 5,10-dioxide], the half-maximal effective concentration (EC50) turned out to be 3.3 ± 0.22 µM in test [2] (setting [5]), 4.2 ± 0.2 µM in test [2] (setting [6]), 27 ± 1.8 µM in test [3] (setting [7]) and 27 ± 1.2 µM in test [3] (setting [8]).
`O=C(O)COc1cccc2c1[n+]([O-])c1cccc(OCC(=O)O)c1[n+]2[O-]` [Example 37, 1,6-bis(carboxymethoxy)phenazine 5,10-dioxide]: the half-maximal effective concentration (EC50) in test [2] (setting [5]) is 39 ± 9 µM; in test [2] (setting [6]), 18 ± 3 µM; in test [3] (setting [7]), greater than 200 µM; in test [3] (setting [8]) it was greater than 200 µM.
As for `[O-][n+]1c2ccccc2[n+]([O-])c2cc(O)ccc21` [Example 60, 2-hydroxyphenazine 5,10-dioxide], the results for the EC50 in test [1] (setting [4]), in test [2] (setting [5]) and in test [2] (setting [6]) were greater than 200 µM, 45 ± 3.5 µM and 128 ± 3 µM, respectively.
The corresponding values for `CCOC(=O)COc1ccc2c(c1)[n+](O)c1ccccc1[n+]2O` [Example 62, 2-(2-ethoxy-2-oxoethoxy)phenazine 5,10-dioxide] are 45 ± 4.8 µM, 15 ± 0.7 µM and 32 ± 5 µM.
Take `CN1CCN(C(=O)Oc2ccc3c(c2)[n+](O)c2ccccc2[n+]3O)CC1` [Example 63, 2-((4-methylpiperazine-1-carbonyl)oxy)phenazine 5,10-dioxide]: the EC50 in test [1] (H9c2, 24 h) is 53 ± 0.3 µM; in test [2] (setting [9]) it was 3.5 ± 0.19 µM; in test [2] (setting [10]), 14 ± 0.4 µM.
As for `Cc1cc2c(cc1C)[n+]([O-])c1cc(O)ccc1[n+]2[O-]` [Example 64, 7-hydroxy-2,3-dimethylphenazine 5,10-dioxide], the EC50 in test [1] (setting [4]) was greater than 200 µM; in test [2] (setting [5]), 50 ± 3.8 µM; in test [2] (setting [6]), 117 ± 1 µM.
As for `Cc1cc2c(cc1C)[n+](O)c1cc(OC(=O)N3CCN(C)CC3)ccc1[n+]2[O-]` [Example 65, 2,3-dimethyl-7-((4-methylpiperazine-1-carbonyl)oxy)phenazine 5,10-dioxide], the EC50 in test [1] (H9c2, 24 h) was 20 ± 2.4 µM; in test [2] (setting [9]), 2.5 ± 0.24 µM; in test [2] (setting [10]), 17 µM.
`Nc1ccc2c(c1)[n+](O)c1ccccc1[n+]2[O-]` [Example 67, 2-aminophenazine 5,10-dioxide]: the half-maximal effective concentration (EC50) in test [1] (setting [4]) is 80 ± 8.9 µM; in test [2] (setting [5]), 7.6 ± 0.89 µM; in test [2] (setting [6]), 31 ± 1.4 µM.
As to `Cc1c(C)[n+]([O-])c2c(OC(=O)N3CCOCC3)cccc2[n+]1[O-]` [Example 69, 2,3-dimethyl-5-((morpholine-4-carbonyl)oxy)quinoxaline 1,4-dioxide], the EC50 in test [2] (setting [11]) and in test [2] (setting [12]) was greater than 200 µM each time.

Source of the values: patent publication US11958842B2, “Substituted phenazines and methods of treating cancer and bacterial diseases” (Adjutec Pharma AS, priority 2016, dated 2024).
